The numbers were not newly measured in paper PMC7536072, “Molecular and functional characterization of somatostatin-type signalling in a deuterostome invertebrate” (Open Biology, 2020), which cites them from elsewhere.

Bridges are numbered along the chain shown (N, C = ends). Where no end group is shown, it is not given here.

One data set deals with mammals. To be noted: intracerebroventricular, cited from earlier work. The source says:
(§1) Subsequently, an N-terminally extended isoform (SS28) was identified, with both SS14 and SS28 being derived from the same precursor protein [5]. Five G-protein-coupled receptors, SSTR1, SSTR2, SSTR3, SSTR4 and SSTR5, mediate effect ...

The subject of the next data set is growth hormone release. To be noted: ref [1]; cited from earlier work.
Description: as §1

In another data set the test system is insulin release. To be noted: ref [2]; cited from earlier work.
Description: as §1

For the substance “SS: tetradecapeptide with a disulfide bridge linking cysteine residues at positions 3 and 14 (SS14) (AGCKNFFWKTFTSC; disulfide 3-14; UniProt P61278 103-116, looked up)”, the “effect on food intake and drinking” value in the data set with mammals (ref [12],[13]) is “stimulation of food intake and drinking”. Further, the anxiolytic effect entry in the data set with mammals (ref [14]) was “anxiolysis”. For the same substance, in the data set on growth hormone release, the “effect on growth hormone release” value is “inhibits growth hormone release”. Besides, in the data set on insulin release, the “effect on insulin release” value is listed as “inhibits insulin release”.
